What is called IC50 is the midpoint of a concentration-inhibition curve. A word on the CC50: it is the concentration at which the toxic effect on the cells reaches its halfway point.

Data set [1] relates to L. donovani (MHOM/IN/00/DEVI) promastigotes. Briefly: In vitro antileishmanial activity on promastigotes, MTT assay. In kind it is cell-based. As to conditions: Leishmania donovani, 72 h incubation, mean ± SD of three independent experiments. The method, then: L. donovani (MHOM/IN/00/DEVI) used in this study was provided by the CNR Leishmania (Montpellier, France). The effects of the tested compounds on the growth of L. donovani (MHOM/IN/00/DEVI)promastigotes were assessed by MTT assay[41] .Briefly, promastigotes in log-phase in Schneider′s medium supplemented with 20% fetal calf serum (FCS), 2 mM L-glutamine and antibiotics (100 U/mL penicillin and 100 μg/mL streptomycin), were incubated at an average density of 10^6 parasites/mL in sterile 96-well plates with various concentrations of compounds dissolved in DMSO (final concentration less than 0.5% v/v), in duplicate. Appropriate controls treated by DMSO and pentamidine or amphotericin B (reference drugs purchased from Sigma-Aldrich) were added to each set of experiments. After a 72 h incubation period at 27 °C, parasite metabolic activity was determined. Each plate-well was then microscope-examined for detecting possible precipitate formation. 20 μL of MTT 3–(4,5-dimethylthiazol-2-yl)-2,5-diphenyltetrazolium bromide) solution (5 mg/mL) were added to each well followed by incubation for another 4 h. The enzyme reaction was then stopped by addition of 100 μL of 50% isopropanol – 10% sodium dodecyl sulfate[42] .Plates were shaken vigorously (300 rpm) for 10 minutes and the absorbance measured in a plate reader at 570 nm in a BIO-TEK ELx808 Absorbance Microplate Reader. […] IC50 were calculated by non-linear regression analysis processed on doseresponse curves, using TableCurve 2D V5.0 software. IC50 values represent the mean value calculated from three independent experiments.
(Tetrazolium assays rely on reduction of a dye to a coloured formazan, in cell work by metabolically active cells.)

Data set [2] relates to P. falciparum CQ-resistant strain W2. Briefly: In vitro antiplasmodial activity, SYBR Green I fluorescence-based method, W2 strain. Particulars: for IC50: Plasmodium falciparum, chloroquine-resistant strain W2, 48 h incubation, read-out: P. falciparum strains IC50 values, W2; for Selectivity Index HepG2/W2: ratio CC50 HepG2 / IC50 W2. In kind it is cell-based, Plasmodium falciparum. The method, then:
(§1) The in vitro antiplasmodial activities were tested over concentrations ranging from 39 nM to 40 μM against culture-adapted Plasmodium falciparum reference strains 3D7 and W2. […] The parasites were cultivated in RPMI medium (Sigma-Aldrich, Lyon, France) supplemented with 0.5% Albumax I (Life Technologies corporation, Paisley, United Kingdom), hypoxanthine (Sigma-Aldrich), gentamicin (Sigma-Aldrich), and human erythrocytes and were incubated at 37 °C in a candle jar, as described previously. The P. falciparum drug susceptibility test was carried out in 96-well flat bottom sterile plates under a final volume of 250 μL. After a 48 h incubation with the drugs, quantities of DNA in treated and control cultures of parasites in human erythrocytes were compared according to the SYBR Green I (Sigma-Aldrich) fluorescence-based method[38]^,[39]. Briefly, after incubation, plates were frozen at -20 °C until use. They were then left to thaw for 2 h at room temperature and 100 μL of the homogenized culture were transferred to 96-well flat bottom sterile black plates (Nunc Inc) already containing 100 μL of the SYBR Green I lysis buffer (2xSYBR Green, 20 mM Tris base pH 7.5, 5 mM EDTA, 0.008% w/v saponin, 0.08% w/v Triton X-100). […] Plates were incubated for 1 h at room temperature and then read on a fluorescence plate reader (Tecan, Austria) using excitation and emission wavelengths of 485 and 535 nm, respectively.

Data set [3] concerns P. falciparum CQ-sensitive strain 3D7. In words: In vitro antiplasmodial activity, SYBR Green I fluorescence-based method, 3D7 strain. Particulars: for IC50: chloroquine-sensitive strain 3D7, 48 h incubation, read-out: P. falciparum strains IC50 values, 3D7; for Selectivity Index HepG2/3D7: ratio CC50 HepG2 / IC50 3D7. In kind it is cell-based, Plasmodium falciparum. The method, then:
as §1

A short description of data set [4]: Cytotoxicity evaluation, MTT assay. In kind it is cell-based, human. Particulars: human, HepG2 cells (hepatocarcinoma cell line, ATCC HB-8065); HepG2, 72 h incubation, mean ± SD of three independent experiments. The method, then:
These assays were performed toward the human HepG2 cell line (HepG2 CC50). […] These cells express many of the hepatocyte-specific metabolic enzymes, thus enabling the cytotoxicity of tested product metabolites to be evaluated. […] Duplicate assays were performed for each sample. Each plate-well was then microscope-examined for detecting possible precipitate formation before the medium was aspirated from the wells. 100 μL of MTT solution (0.5 mg/mL in medium without FCS) were then added to each well. […] After this time, the MTT solution was removed and DMSO (100 μL) was added to dissolve the resulting blue formazan crystals. Plates were shaken vigorously (300 rpm) for 5 minutes. The absorbance was measured at 570 nm with 630 nm as reference wavelength spectrophotometer using a BIO-TEK ELx808 Absorbance Microplate Reader. DMSO was used as blank and doxorubicin (Sigma Aldrich) as positive control. Cell viability was calculated as percentage of control (cells incubated without compound). The 50% cytotoxic concentration was determined from the dose-response curve by using the TableCurve 2D V5.0 software (Systat Software, San Jose, CA).

[5] abbreviates: Plasmodium falciparum, 3D7, 48 h.

Read-outs that look alike come from different tables or passages of the source.

Take `C[C@@H]1[C@H](O)[C@@H](C)/C=C/C=C/C=C/C=C/C=C/C=C/C=C/[C@H](O[C@@H]2O[C@H](C)[C@@H](O)[C@H](N)[C@@H]2O)C[C@@H]2O[C@](O)(C[C@@H](O)C[C@@H](O)[C@H](O)CC[C@@H](O)C[C@@H](O)CC(=O)O[C@H]1C)C[C@H](O)[C@H]2C(=O)O` [Amphotericin B, reference compound]: in data set [1], the IC50 was determined as 100 ± 40 nM.
In the case of `c1ccc(-c2nc3ccccc3n3cc(CNCCCN4CCN(CCCNCc5cc6c(-c7ccccc7)nc7ccccc7n6c5)CC4)cc23)cc1` [1r, Bis{N-[(4-phenylpyrrolo[1,2-a]quinoxalin-2-yl)methyl]-3-aminopropyl}piperazine], the values for the IC50 in data set [2] and in data set [3] (setting [5]) were 750 ± 100 nM and 7220 ± 770 nM, respectively.
Regarding `COc1ccc2nc(-c3cccc(CNCCOCCOCCOCCNCc4cccc(-c5nc6ccc(OC)cc6n6cccc56)c4)c3)c3cccn3c2c1` [1u, N,N′-[oxybis(2,1-ethanediyloxy-2,1-ethanediyl)]bis-3–(8-methoxypyrrolo[1,2-a]quinoxalin-4-yl)benzylamine], the IC50 in data set [2] was 250 ± 80 nM; in data set [3] (setting [5]), approximately 80 nM; in data set [3], 76 ± 9 nM; in data set [1] it was not below 10000 nM. Moreover, the “Selectivity Index HepG2/W2” value in data set [2] came to 6.16. In addition, the “Selectivity Index HepG2/3D7” value in data set [3] stood at 20.26. The molecule also displayed a CC50 at 72 h in data set [4] of 1540 ± 700 nM.
As for `COc1ccc2c(c1)nc(-c1ccc(CNCCCN(CCCNCc3ccc(-c4nc5cc(OC)ccc5n5cccc45)cc3)CCCNCc3ccc(-c4nc5cc(OC)ccc5n5cccc45)cc3)cc1)c1cccn12` [1s, Tris{N-[4–(7-methoxypyrrolo[1,2-a]quinoxalin-4-yl)benzyl]-3-aminopropyl}amine], the IC50 in data set [2] was 290 ± 50 nM; in data set [3] (setting [5]), 200 ± 40 nM; in data set [1] it was not below 10000 nM. Besides, the “Selectivity Index HepG2/W2” value in data set [2] came out at 5.72. For the same molecule, the “Selectivity Index HepG2/3D7” value in data set [3] came out at 8.30. Further, it took 1660 ± 500 nM to reach half-maximal cytotoxicity in data set [4] (CC50 at 72 h).
`CN(CCCNCc1cccc(-c2nc3ccccc3n3cccc23)c1)CCCNCc1cccc(-c2nc3ccccc3n3cccc23)c1` [1m, Bis{N-[3-(pyrrolo[1,2-a]quinoxalin-4-yl)benzyl]-3-aminopropyl}methylamine]: the results for the IC50 in data set [2], in data set [3] (setting [5]) and in data set [1] were 120 ± 10 nM, 1070 ± 160 nM and 2800 ± 100 nM, respectively. Further, the “Selectivity Index HepG2/W2” value in data set [2] came out at 16.17. Further, the “Selectivity Index HepG2/3D7” value in data set [3] was determined as 1.81. The CC50 at 72 h in data set [4] was determined as 1940 ± 1000 nM.
In the case of `COc1ccc2nc(-c3cccc(CNCCCN4CCN(CCCNCc5cccc(-c6nc7ccc(OC)cc7n7cccc67)c5)CC4)c3)c3cccn3c2c1` [1p, Bis{N-[3–(8-methoxypyrrolo[1,2-a]quinoxalin-4-yl)benzyl]-3-aminopropyl}piperazine], the IC50 in data set [2] was found to be 170 ± 30 nM; in data set [3] (setting [5]), 40 ± 4 nM; in data set [1], 3390 ± 400 nM. Further, the “Selectivity Index HepG2/W2” value in data set [2] is given as 9.23. In addition, the “Selectivity Index HepG2/3D7” value in data set [3] was 39.25. The CC50 at 72 h in data set [4] amounted to 1570 ± 800 nM.
`c1ccc2c(c1)nc(-c1ccc(CNCCCNCCCNCc3ccc(-c4nc5ccccc5n5cccc45)cc3)cc1)c1cccn12` [1a, Bis{N-[4-(pyrrolo[1,2-a]quinoxalin-4-yl)benzyl]-3-aminopropyl}amine]: the values for the IC50 in data set [2], in data set [3] (setting [5]) and in data set [1] were 850 ± 150 nM, 3420 ± 540 nM and 1000 ± 200 nM, respectively. Also, in data set [2], the “Selectivity Index HepG2/W2” value was 2.13. Moreover, the “Selectivity Index HepG2/3D7” value in data set [3] is on record as 0.53. Also, the CC50 at 72 h in data set [4] is 1810 ± 100 nM.
`COc1cccc2nc(-c3ccc(CNCCCN(C)CCCNCc4ccc(-c5nc6cccc(OC)c6n6cccc56)cc4)cc3)c3cccn3c12` [1h, Bis{N-[4–(9-methoxypyrrolo[1,2-a]quinoxalin-4-yl)benzyl]-3-aminopropyl}methylamine]: the IC50 in data set [2] came out at 440 ± 110 nM; in data set [3] (setting [5]), 250 ± 40 nM; in data set [1], 2070 ± 20 nM. Also, in data set [2], the “Selectivity Index HepG2/W2” value stood at 5.54. Also, in data set [3], the “Selectivity Index HepG2/3D7” value is 9.76. This molecule had a CC50 at 72 h in data set [4] of 2440 ± 400 nM.
On to `COc1ccc2nc(-c3cccc(CNCCCN(CCCNCc4cccc(-c5nc6ccc(OC)cc6n6cccc56)c4)CCCNCc4cccc(-c5nc6ccc(OC)cc6n6cccc56)c4)c3)c3cccn3c2c1` [1t, Tris{N-[3–(8-methoxypyrrolo[1,2-a]quinoxalin-4-yl)benzyl]-3-aminopropyl}amine], for which the IC50 in data set [2] was 190 ± 20 nM; in data set [3] (setting [5]) it was 240 ± 30 nM; in data set [1] it was not below 10000 nM. Also, the “Selectivity Index HepG2/W2” value in data set [2] is reported as 9.05. The “Selectivity Index HepG2/3D7” value in data set [3] was determined as 7.17. The molecule also gave a CC50 at 72 h in data set [4] of 1720 ± 600 nM.
In the case of `CCOc1ccn2c1c(-c1ccc(CNCCCN(C)CCCNCc3ccc(-c4nc5ccccc5n5ccc(OCC)c45)cc3)cc1)nc1ccccc12` [1j, Bis{N-[4–(3-ethoxypyrrolo[1,2-a]quinoxalin-4-yl)benzyl]-3-aminopropyl}methylamine], the IC50 stood at 490 ± 160 nM in data set [2], 260 ± 30 nM in data set [3] (setting [5]) and 4260 ± 100 nM in data set [1]. Moreover, the “Selectivity Index HepG2/W2” value in data set [2] was 3.98. Further, the “Selectivity Index HepG2/3D7” value in data set [3] is listed as 7.50. This molecule also had a CC50 at 72 h in data set [4] of 1950 ± 300 nM.
In the case of `COc1ccc2nc(-c3cccc(CNCCCN(C)CCCNCc4cccc(-c5nc6ccc(OC)cc6n6cccc56)c4)c3)c3cccn3c2c1` [1o, Bis{N-[3–(8-methoxypyrrolo[1,2-a]quinoxalin-4-yl)benzyl]-3-aminopropyl}methylamine], the values for the IC50 in data set [2], in data set [3] (setting [5]) and in data set [1] were 206 ± 30 nM, 180 ± 20 nM and 3510 ± 100 nM, respectively. For the same molecule, in data set [2], the “Selectivity Index HepG2/W2” value was determined as 7.28. For the same molecule, the “Selectivity Index HepG2/3D7” value in data set [3] turned out to be 8.33. In addition, the CC50 at 72 h in data set [4] was 1500 ± 900 nM.
Consider `c1ccc(-c2cc3c(-c4ccc(CNCCCN5CCN(CCCNCc6ccc(-c7nc8ccccc8n8cc(-c9ccccc9)cc78)cc6)CC5)cc4)nc4ccccc4n3c2)cc1` [1l, Bis{N-[4–(2-phenylpyrrolo[1,2-a]quinoxalin-4-yl)benzyl]-3-aminopropyl}piperazine], for which the IC50 in data set [2] stood at 1390 ± 130 nM; in data set [3] (setting [5]) it was 8960 ± 690 nM.
Regarding `CN(CCCNCc1ccc(-c2nc3ccccc3n3cccc23)cc1)CCCNCc1ccc(-c2nc3ccccc3n3cccc23)cc1` [1b, Bis{N-[4-(pyrrolo[1,2-a]quinoxalin-4-yl)benzyl]-3-aminopropyl}methylamine], the IC50 in data set [2] is 4200 ± 650 nM; in data set [3] (setting [5]) it was 1200 ± 200 nM. Besides, in data set [2], the “Selectivity Index HepG2/W2” value was 0.37. Further, in data set [3], the “Selectivity Index HepG2/3D7” value was found to be 1.30. In data set [4], this molecule gave a CC50 at 72 h of 1560 ± 600 nM.
Regarding `c1ccc2c(c1)cc1c(-c3ccc(CNCCCN4CCN(CCCNCc5ccc(-c6nc7ccccc7n7c6cc6ccccc67)cc5)CC4)cc3)nc3ccccc3n12` [1q, Bis{N-[4-(indolo[1,2-a]quinoxalin-6-yl)benzyl]-3-aminopropyl}piperazine], the IC50 in data set [3] (setting [5]) turned out to be 1000 ± 50 nM; in data set [1], 570 ± 100 nM. This molecule displayed a CC50 at 72 h in data set [4] of 1560 ± 700 nM.

Values taken from publication PMC6445168, “Design, synthesis and antimalarial activity of novel bis{N-[(pyrrolo[1,2-a]quinoxalin-4-yl)benzyl]-3-aminopropyl}amine derivatives” (Journal of Enzyme Inhibition and Medicinal Chemistry, 2017).
